Biological target: AChE (Electrophorus electricus, 220 U·mg^-1) (Electrophorus electricus, UniProt O42275)
Test: modified Ellman assay, […] nm
Assay type: biochemical

AChE (Electrophorus electricus, 220 U·mg^-1), sequence (O42275 24-633): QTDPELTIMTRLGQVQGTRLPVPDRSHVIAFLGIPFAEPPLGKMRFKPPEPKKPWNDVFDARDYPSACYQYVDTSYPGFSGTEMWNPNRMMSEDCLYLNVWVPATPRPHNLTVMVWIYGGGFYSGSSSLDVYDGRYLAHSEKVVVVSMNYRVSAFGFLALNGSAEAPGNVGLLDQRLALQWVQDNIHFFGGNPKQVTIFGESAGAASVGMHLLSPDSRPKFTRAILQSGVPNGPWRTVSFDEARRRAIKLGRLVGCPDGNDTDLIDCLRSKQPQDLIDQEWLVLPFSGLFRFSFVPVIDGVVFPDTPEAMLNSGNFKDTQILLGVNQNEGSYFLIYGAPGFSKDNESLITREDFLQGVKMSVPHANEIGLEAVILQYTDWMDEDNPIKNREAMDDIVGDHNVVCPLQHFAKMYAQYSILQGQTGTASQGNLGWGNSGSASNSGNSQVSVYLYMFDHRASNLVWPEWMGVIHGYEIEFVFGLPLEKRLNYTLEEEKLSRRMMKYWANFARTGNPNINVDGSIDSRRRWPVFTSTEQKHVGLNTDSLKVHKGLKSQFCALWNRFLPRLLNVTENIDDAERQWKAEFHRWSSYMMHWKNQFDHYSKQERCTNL

CCOP(=S)(OCC)Oc1nc(Cl)c(Cl)cc1Cl [CPF, chlorpyrifos]
IC50: 73 µM

COP(=O)(OC)OC=C(Cl)Cl [DDVP, dichlorvos]
IC50: 1.25 µM
